Experimental data published in patent publication US20210401867A1, “PHOTOSENSITIZERS AND METHOD OF TREATING CANCER USING THE SAME” (Cheng-Wen Wu, priority 2018, published 2021).

Assays:
FaDu cells = assay: comet assay for DNA damage in FaDu cells; format: cell-based, human; settings: 1 μM BrdU with 1 Gy of 14 keV NR, versus BrdU-RS2000 or RS2000
Procedure: Referring to FIGS. 22A and 22B, comet assays for evaluating DNA damages induced by BrdU, RS2000, BrdU with RS2000, NR, and NR with BrdU are provided in accordance with an exemplary embodiment of the present disclosure. Comet assays are commonly used to measure DNA single-strand breaks […] and double-strand breaks (DSBs). FaDu cells (10^4 cells/10 μl of PBS) are mixed with 75 μl of 0.75% low-melting agarose. The mixture is then immediately embedded onto a glass slide pre-coated with 2 layers of 1% agarose, and spread evenly with a coverslip. The mixture on the glass slide is solidified on ice for 5 minutes. 2 additional layers of 1% agarose are then coated on the cell layer. The cell is then soaked with cell lysis buffer (10 mM Tris, 2.5 M NaCl, 100 mM Na2-EDTA, and 1% Triton X-100, pH 10.0) at 4° C. for 1 hour. The slide is then placed horizontally in an electrophoretic apparatus with alkaline electrophoretic buffer ([…] and 1 mM Na2-EDTA, pH >12.0) for 60 minutes, and then electrophoresis is conducted in the apparatus for 30 minutes at 25 V and 300 mA. After the electrophoresis has ended, the slide is soaked with neutralization buffer (0.4 M Tris, pH 7.4) for 10 minutes. The cells on the slide are stained with propidium iodide (PI) of 20 μg/ml and subjected to microscopic examination. […] FIG. 22B is a quantified result of FIG. 22A. […]

γH2AX = assay: p-γH2AX immunofluorescent staining of FaDu cells; format: cell-based, human; settings: 1 μM BrdU with 1 Gy of 14 keV NR
Procedure: Referring to FIGS. 23A and 23B, p-γH2AX immunofluorescent staining for evaluating DNA damages induced by BrdU, RS2000, BrdU with RS2000, NR, and NR with BrdU, are provided in accordance with exemplary embodiments of the present disclosure. γH2AX is the histone H2AX protein with phosphorylated amino acid on serine 139. γH2AX is a specific marker for DNA DSBs. FaDu cells are seeded on a chamber slides, and are fixed with −20° C., 100% ethanol under room temperature for 15 minutes. The fixed chamber slides are washed with PBS, and permeablized with 0.1% Triton X-100 for 10 minutes. Then, the chamber slides are blocked with 5% milk in PBS for 30 minutes at room temperature, and incubated with primary antibody (anti-γH2AX) overnight at 4° C. FaDu cells in the chamber slides are then washed with PBS, and incubated with secondary antibody which is conjugated by a fluorescent dye for 1 hour at room temperature. The nuclei were countestained with 5 μg/ml of DAPI (4′,6-diamidino-2-phenylindole). The stained FaDu cells are then being mounted and subjected to microscopic examination with a confocal laser scanning microscope (ZEISS LSM780). The number of p-γH2AX are quantified using Metamorph software. […] FIG. 23B is a quantitative result of FIG. 23A. […]

SMILES: O=c1[nH]c(=O)n([C@H]2C[C@H](O)[C@@H](CO)O2)cc1Br [BrdU, bromodeoxyuridine]
- relative DNA tail movement (comet assay) (FaDu cells): largest relative DNA tail movements
- γH2AX expression (immunofluorescent staining) (γH2AX): significant amount of γH2AX expression
